Our source for the GI50 and TGI values is PubChem BioAssay (NCI).

“And” between values parts separate entries of the source, which are not always exact repeats. Identical values can stand only once.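 A five-concentration, 48-hour dose response in 96-well plates underlies each endpoint, interpolated linearly between surrounding concentrations. Abbreviation: GI50, concentration required for 50% inhibition of growth. TGI marks complete inhibition of growth.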

The assay concerns MDA-MB-468 breast. The assay can be described thus: NCI tumour cell line growth inhibition, 48 h.
`COc1ccc(-c2nn(-c3cccc(Cl)c3)cc2-c2c(C#N)c(=O)n3[nH]c(-c4ccc(C)o4)nc3c2C#N)cc1`: the GI50 is 1.34 µM and the TGI came to 4.93 µM.
For `CCCCCCC1CCCCN1C(c1ccccc1)C(O)c1ccccc1` (stereo not given) the same measures were 3.81 µM and 14.4 µM.
For `CC(C)(C)OC(=O)CC(S(=O)(=O)c1ccccc1)S(=O)(=O)c1ccccc1`, the GI50 is 1.71 µM and the TGI worked out at 3.2 µM.
Taken in the same sequence, the figures for `OCCN1CCCN(CCCN2c3ccccc3Sc3ccc(C(F)(F)F)cc32)CC1` were 1.61 µM and 3.57 µM.
Consider `O=C(/C=C/c1ccccn1)c1ccccc1`, for which the GI50 is 1.8 µM and the TGI was determined as 3.84 µM.
For `COc1cc(C(=O)/C=C/c2c(C)n([O-])c3ccc(Cl)cc3[n+]2=O)cc(OC)c1OC` the same measures were 3.52 µM and 19.3 µM.
Taken in the same sequence, the figures for `C#CCN(CCCOc1ccc(Cl)cc1Cl)CCCSC(=O)CCCCCN1/C(=C\C=C2/CCCC(/C=C/C3=[N+](CCCCCC(=O)[O-])c4ccccc4C3(C)C)=C2Cl)C(C)(C)c2ccccc21` were 1.35 µM and 3.67 µM.
For `Nc1nc2c([nH]1)c1[nH]c3ccccc3c1c1[nH]c3ccccc3c21` the same measures were 2.02 µM and 4.9 µM.
For `COc1ccccc1CNCCCN1C(=O)c2ccc3c4c(ccc(c24)C1=O)C(=O)N(CCCNCCCCN)C3=O`, the GI50 is 0.0907 µM and the TGI stood at 0.231 µM.
For `COc1cc2c(cc1OC)C(Sc1ccc(Cl)cc1)c1c(nc(N)c(C#N)c1N)O2` (stereo not given) the same measures were 0.794 µM and 2.7 µM.
As to `Cn1cc(C2=C(c3cccc([N+](=O)[O-])c3)C(=O)NC2=O)c2ccccc21`, the GI50 was 5.85 µM and the TGI was greater than 25 µM.
For the compound `CN1CCC(C(=O)Nc2n[nH]c3nnc(-c4ccccc4)cc23)CC1`, the GI50 is greater than 18.1 µM and the TGI is greater than 25 µM.
For `CN(C)CC(=O)N1CCc2c([nH]c3ccccc23)C1c1cccnc1` (stereo not given) the same measures were 3.86 µM and 52.9 µM.
Taken in the same sequence, the figures for `Clc1cc(Cl)cc(Nc2ccc3c(OCCCN4CCOCC4)cccc3n2)c1` were 2.08 µM and 4.33 µM.
For `Cc1ncc([N+](=O)[O-])n1CCOc1ccc(C(=O)/C=C/c2ccc(C(F)(F)F)cc2)cc1` the same measures were 3.92 µM and 21.8 µM.
Regarding `COc1cc(/C=C/C(=O)/C=C/c2ccc(-n3ccnc3)cc2)ccc1O`, the GI50 was 2.2 µM and the TGI worked out at 5.36 µM.
Taken in the same sequence, the figures for `O=[N+]([O-])/C(=C/C=C/c1ccccc1)c1ccccc1` were 1.25 µM and 3.09 µM.
For the compound `CC(C)(C)c1cnc(CSc2cnc(NC(=O)C3CCNCC3)s2)o1`, the GI50 is 0.097 µM and 0.0794 µM; the TGI is 0.344 µM and 0.306 µM.
`O=C(Nc1ccc(-n2cc(-c3ccncc3)c(-c3ccc(Cl)c(O)c3)n2)cc1)c1ccc(Cl)c(Cl)c1`: the GI50 is 4.43 µM and the TGI was greater than 100 µM.
On to `CC(=O)CCN1CC2CN=NC2(C#N)C1` (stereo not given), for which the GI50 was greater than 100 µM and the TGI was greater than 100 µM.
Consider `COc1ccc([C@H]2c3[nH]c4ccccc4c3C[C@H]3C(=O)N(CCCCCCC(=O)NO)CC(=O)N23)cc1`, for which the GI50 was 1.43 µM and the TGI worked out at 18.5 µM.
Taken in the same sequence, the figures for `COc1cc(C(=O)Nc2ccc(-c3nc4ccccc4[nH]3)cc2)cc(OC)c1OC` were 11.9 µM and 28.4 µM.
For `CCOC(=O)c1c(-c2ccc(Cl)cc2)c(C#N)c(=S)n(C2OC(COC(C)=O)C(OC(C)=O)C(OC(C)=O)C2OC(C)=O)c1C` (stereo not given) the same measures were greater than 100 µM and greater than 100 µM.
For `Cc1nc2sc(C(=O)Nc3cccc(Cl)c3)c(N)c2cc1C(O)c1ccccc1` (stereo not given) the same measures were 0.486 µM and 20.1 µM.
For `COc1ccc(C2CC(c3cccc(Nc4ccncc4)c3)=NN2c2ccccc2)cc1` (stereo not given), the GI50 is 1.42 µM and the TGI is 2.82 µM.
Taken in the same sequence, the figures for `CNc1ccc(CSc2ccc(C)cc2)cc1` were 2.75 µM and 9.9 µM.
For `COc1ccc(-c2nc3sccn3c2/C=C/C(=O)c2cc(OC)c(OC)c(OC)c2)cc1` the same measures were 2.44 µM and 12.4 µM.
For `CN(Cc1cnc2nc(N)nc(N)c2n1)c1c(Cl)cc(C(=O)NC(CCC(=O)O)C(=O)O)cc1Br` (stereo not given) the same measures were less than 0.0118 µM and greater than 100 µM.
As for `COc1cc(-c2ccc[nH]2)[nH]c1/C=C1\N=C(C)C(C(=O)NC(C)C)=C1C`, the GI50 is 2.91 µM and the TGI is 16.8 µM.
Taken in the same sequence, the figures for `C=C(c1ccc(C(=O)NCCCn2ccnc2)cc1)c1cc2c(cc1C)C(C)(C)CCC2(C)C` were 1.04 µM and 3.24 µM.
